The record followed here is PubChem BioAssay AID179 (DTP/NCI, 2004).

For this assay, the system named is CEM cells HIV-1 protection, formazan growth assay. In words: NCI AIDS Antiviral Assay. The conditions noted are these: for IC50: measured here: growth of uninfected CEM cells. In short, it runs like this:
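Soluble formazan readout of cell growth; CEM cells ± HIV-1; 5 drug concs. ≥50% protection → retest; ≥50% again = moderately active; reproducible 100% = confirmed active.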

Structures are written as SMILES. Where “and” joins values, the source holds several entries; their conditions need not be identical. Equal values may be shown once. Calls of active or inactive are those of the source.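 How the source made its calls: active means compounds giving half or more protection of infected cells from virus-caused growth loss, again on retest; inactive means the rest.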

The EC50 is the concentration giving half of the maximal effect. For orientation: IC50 means the concentration that inhibits the measured activity by half. High values mean lower potency, low ones higher potency. Turning to `Cc1cc2c(c(C(N)=O)c1C)-c1ccccc1C2=O`, the EC50 was above 102 µM and the IC50 was above 102 µM. Regarding `CSc1ncc2c(C#N)c3sc4ccccc4n3c(=O)c2n1`, the EC50 was above 200 µM and the IC50 was above 200 µM. Consider `CC(=O)OCC1OC(n2c(N)c(C#N)c(C)c(C#N)c2=S)C(OC(C)=O)C(OC(C)=O)C1OC(C)=O` (stereo not given), for which the half-maximal effective concentration (EC50) is 145 µM and 162 µM; the IC50 was above 200 µM.

For the molecule `N#CCCN(c1ccc(C=Nc2ccccc2)cc1)S(=O)(=O)c1ccccc1`, the outcome was inactive. For `CCCCC1Sc2cc(OC)cc3c2N(CCN3)C1=O` (stereo not given), the EC50 is above 200 µM and the concentration for half-maximal inhibition (IC50) was determined as 28.2 µM. `O=S1Cc2ccccc2CS1` (stereo not given): the outcome was inactive.

Turning to `O=CC1(c2ccccc2)NC(=O)NC1=O` (stereo not given), the EC50 was above 200 µM and the IC50 was above 200 µM.

As for `N#Cc1c(-c2ccccc2)ssc1=S`, the EC50 is above 200 µM and the IC50 amounted to 14.1 µM. Consider `N.N.N.N.N.N.O=N[O-].[Br-].[Co+3].[Co+3].[OH3+].[OH3+]`, for which the result was inactive.

For the molecule `O=C(c1ccccc1)c1cn(/N=C\c2ccccc2)c(=O)nc1-c1ccccc1`, the outcome was inactive. With `CCN(CC)CCOc1cccc(NC(=O)CN(CC)CC)c1`, the EC50 was above 200 µM and the IC50 stood at 81.3 µM. For the molecule `Cn1c(=O)cc(Nc2ccc(N)cc2)[nH]c1=O`, the EC50 was above 200 µM and the 50% inhibitory concentration (IC50) was above 200 µM.

As for `Cc1ccc(S(=O)(=O)N/N=C2/CCCOC2)cc1`, the EC50 is above 200 µM and the concentration for half-maximal inhibition (IC50) was found to be 138 µM. As to `COc1cccc(CCn2c(N)c(-c3ccccc3)c3ccc([N+](=O)[O-])cc3c2=O)c1`, the EC50 is above 200 µM and the concentration for half-maximal inhibition (IC50) was found to be 7.41 µM.

Regarding `O=Cc1ccc2c(c1)C(O)NC(=O)O2` (stereo not given), the EC50 is 28.2 µM and the IC50 was determined as 72.4 µM. `COCC(O)Cn1ccnc1[N+](=O)[O-]` (stereo not given): the EC50 is above 1230 µM and the IC50 was above 1230 µM. Turning to `Clc1cccc(C2ON=C(c3ccccc3)N2C23CC4CC(CC(C4)C2)C3)c1Cl` (stereo not given), the EC50 is above 200 µM and the 50% inhibitory concentration (IC50) was above 200 µM. For `O=S(=O)(O)C(O)/C=C/c1ccccc1` (stereo not given), the outcome was inactive. For the molecule `O=S(=O)(/N=C1/SC(=Nc2ccccc2)N(c2ccccc2)/C1=N/S(=O)(=O)c1ccccc1)c1ccccc1`, the EC50 was above 200 µM and the IC50 is 2.82 µM. For `O=C(Nc1ccccc1)N1CCNC1=S`, the EC50 was 162 µM and the IC50 is above 200 µM. In the case of `O=c1[nH]c2ccc(Cl)cc2c2oc(-c3ccccc3)nc12`, the outcome was inactive. `CCOC(=O)CN(c1scc(-c2ccccc2)c1C(=O)OCC)S(=O)(=O)c1ccc(C)cc1`: the EC50 was above 200 µM and the IC50 was 9.33 µM. With `C=CCNC(=O)NNC(O)(C(=O)OCC)C(F)(F)F` (stereo not given), the EC50 was above 200 µM and the concentration for half-maximal inhibition (IC50) amounted to 174 µM. Regarding `CCOC(=O)CCCc1cc(=O)c2c(C)c3[nH]c4ccc(Cl)cc4c3c(C)c2[nH]1`, the EC50 was above 200 µM and the IC50 amounted to 34.7 µM. `Cc1[nH]n(-c2nc3c(c(=O)[nH]2)CCCC3)c(=O)c1CCO`: the EC50 is above 200 µM and the IC50 came to 129 µM.

With `[O-]c1c(-c2ccccc2)[se]c(-c2ccccc2)[n+]1-c1ccccc1`, the outcome was inactive. Regarding `COC(=O)C1=C(C(=O)OC)C2OC1C1C2C2(C)C(C)=C(C)C1(C)S2=O` (stereo not given), the EC50 is above 200 µM and the IC50 came to 2.82 µM. Turning to `O=C(O)c1cscc1-c1cccc2ccccc12`, the EC50 is above 200 µM and the IC50 came out at 158 µM. The like results for `CCOC(=O)c1nc2c(OC)nn(O)cc-2c1[N+](=O)[O-]` were, in that order, above 457 µM and 5.75 µM. As for `CCN(CC)CCN(C(=O)c1ccc(F)cc1)c1ccccc1N`, the EC50 is above 200 µM and the IC50 was above 200 µM. As for `CCC(c1nc2ccccc2c(=O)n1NC(=O)C(C)(C)C)C1(O)CCCCC1` (stereo not given), the EC50 was above 200 µM and the concentration for half-maximal inhibition (IC50) was 107 µM.

Turning to `O=C1c2ccccc2CC12CCC1(CC2)OCCO1`, the EC50 was above 200 µM and the 50% inhibitory concentration (IC50) is above 200 µM. In the case of `NC(N)NCCCc1cn2c(n1)C1CCCN1C(=O)C2Cc1ccccc1` (stereo not given), the EC50 is above 676 µM and the concentration for half-maximal inhibition (IC50) is above 676 µM.

Turning to `N#Cc1ccc(Nc2cnc3cc(N)ccc3n2)cc1`, the EC50 is above 20 µM and the IC50 is above 20 µM.

Consider `CC1C(c2ccccc2O)c2cc3c(cc2OC1N1CCCC1)OCO3` (stereo not given), for which the result was inactive. `CSC(=Nc1ccccc1Cl)NC(=O)c1ccc(Br)cc1`: the EC50 is above 10.2 µM and the IC50 is above 10.2 µM. Regarding `COc1ccc(C2OCC3OC(n4cc(C)c(=O)[nH]c4=O)CC3N2O)cc1` (stereo not given), the EC50 was above 200 µM and the IC50 is above 200 µM.

As to `CC(C)OC(=S)SSC(=S)OC(C)C`, the EC50 was above 200 µM and the IC50 turned out to be 6.92 µM.

Regarding `CC(=O)NC1C(=O)N([C@H](COCc2ccccc2)c2ccccc2)[C@@H]1COC(C)(C)C` (stereo not given in full), the EC50 was above 295 µM and the IC50 was found to be 186 µM. For the molecule `O=C(O)c1cc(Cc2cc(C(c3ccc(O)c(C(=O)O)c3)c3ccc(O)c(C(=O)O)c3)cc(C(=O)O)c2O)ccc1O`, the EC50 was 95.5 µM and the IC50 amounted to 195 µM.

For `COc1nc(=O)n(C)cc1B(O)O`, the EC50 was above 200 µM and the half-maximal inhibitory concentration (IC50) was determined as 32.4 µM. The like results for `O=C(O)c1ccccc1C(=O)NC(Cc1cccc(NP(=O)(N2CC2)N2CC2)c1)C(=O)O` (stereo not given) were, in that order, 27.5 µM and above 200 µM.

With `O=C(O)CCCc1ccc2c(c1)CC1(C2)Cc2cc3c(cc2C1)CCCC3`, the EC50 is above 200 µM and the IC50 worked out at 36.3 µM. Take `O=C(NC(=O)c1c(F)cccc1F)Nc1ncc(Cl)cc1Cl`: the EC50 is above 200 µM and the concentration for half-maximal inhibition (IC50) is above 200 µM. Consider `S=C(N/N=C(/c1ccccc1)c1ccccn1)Nc1cccc(Cl)c1`, for which the EC50 was above 0.2 µM and the IC50 turned out to be 0.0891 µM. Turning to `Cn1c(=O)cc2[nH]c3ccccc3n2c1=O`, the EC50 was above 63.1 µM and the 50% inhibitory concentration (IC50) was above 63.1 µM. Consider `O=C1Oc2ccccc2C(=O)/C1=C1\SSC(c2ccccc2)=C1c1ccccc1`, for which the EC50 is above 200 µM and the half-inhibitory concentration (IC50) is above 200 µM. As for `OC1COc2c3ccccc3nn2C1` (stereo not given), the EC50 was above 1320 µM and the IC50 stood at 871 µM.

With `O=C1N=CC2(N=N2)C(=O)N1`, the EC50 is above 200 µM and the 50% inhibitory concentration (IC50) stood at 15.5 µM. Regarding `O=c1ccc2cc3ccoc3c(OCCOCCOCCOCCOc3c4occc4cc4ccc(=O)oc34)c2o1`, the EC50 was above 79.4 µM and the concentration for half-maximal inhibition (IC50) was found to be 10.7 µM. For the molecule `COc1ccc(NC(=S)N/N=C/c2cccc(C)n2)cc1`, the EC50 was above 200 µM and the half-maximal inhibitory concentration (IC50) came to 4.9 µM. Turning to `O=c1c2cccnc2ncn1CCN1CCOCC1`, the outcome was inactive.

On to `C1=NCCNCCN=Cc2ccccc2OCc2cccc(n2)COc2ccccc21`, for which the EC50 was above 200 µM and the IC50 was 10.7 µM. Turning to `Nc1ccc2nc(Nc3ccc(F)cc3)cnc2c1`, the EC50 is above 20.4 µM and the half-inhibitory concentration (IC50) was above 20.4 µM. In the case of `O=C(Nc1ccccc1)n1[nH]c(=O)n(-c2ccccc2)c1=O`, the EC50 was above 200 µM and the IC50 is above 200 µM. With `O=C1Nc2cc3c(cc2C(=O)N2C/C(=N/O)CC12)OCO3` (stereo not given), the EC50 is above 324 µM and the concentration for half-maximal inhibition (IC50) was determined as 191 µM.

As to `CC1=NC(=Cc2ccc(O)cc2)C(=O)N1n1c(-c2ccccc2)nc2ccccc2c1=O`, the EC50 was above 200 µM and the IC50 was found to be 21.9 µM.

As for `O=C(O)C1=C/C(=C(/c2ccccc2)c2cc(C(=O)O)c(O)c3ccccc23)c2ccccc2C1=O`, the result was inactive. Consider `O=c1[nH]cnc2c1ncn2C1CC(O)C(CO)(C(F)(F)F)O1` (stereo not given), for which the EC50 is above 200 µM and the IC50 turned out to be 132 µM.

`CC1=NC(C)(C)N(O)C1(C)C`: the EC50 is above 200 µM and the half-maximal inhibitory concentration (IC50) was above 200 µM. For `C/C(=N\NS(=O)(=O)c1ccc(C)cc1)C(CN1CCCCC1)C(c1ccccc1)c1c(O)c2ccccc2oc1=O` (stereo not given), the EC50 is above 58.9 µM and the IC50 was 49 µM. In the case of `CN(/N=C\c1ccnc2ccccc12)c1ccc([N+](=O)[O-])cc1`, the result was inactive.

Regarding `NCCn1c(-c2ccccc2)nc2ccccc2c1=O`, the EC50 is above 200 µM and the IC50 came to 123 µM.

Take `O=S(=O)(c1ccccc1)n1cnc(CCc2ccccc2)n1`: the EC50 was above 794 µM and the 50% inhibitory concentration (IC50) is above 794 µM. Regarding `Fc1cccc(C2SCc3nc4ccccc4n32)c1F` (stereo not given), the result was inactive.

With `O=C(/C=C/c1cccs1)c1ccc(Cl)s1`, the outcome was inactive.

For the molecule `COc1c(F)c(F)c(/C(O)=C\c2nc3ccccc3[nH]c2=O)c(F)c1F`, the EC50 is above 200 µM and the IC50 worked out at 195 µM. The like results for `N#C[C@@H](c1ccccn1)c1ncccc1[N+](=O)[O-]` were, in that order, above 200 µM and above 200 µM.

Turning to `CCN(CC)C(=O)O/N=C(/C)c1ccccc1`, the EC50 was above 200 µM and the IC50 was above 200 µM. For the molecule `CNc1ccc(/C=C2\C=Cc3ccccc32)cc1I`, the EC50 is above 20 µM and the IC50 is 3.39 µM.

Turning to `COc1cccc(N=N/C(=N/NC(=O)c2cc(Cl)ccc2O)c2ccc(N(CCC#N)CCC#N)cc2C)c1`, the EC50 was above 200 µM and the IC50 is 29.5 µM. As to `O=C1OC(=O)C2C1C1(c3ccccc3)OC2(c2ccccc2)c2c(Br)c(Br)c(Br)c(Br)c21` (stereo not given), the outcome was inactive.

In the case of `Cc1cn(C2COC(CO)C2CO)c(=O)[nH]c1=O` (stereo not given), the half-maximal effective concentration (EC50) was 44.7 µM and the half-inhibitory concentration (IC50) was above 200 µM.

Take `COc1cc(O)c2c(=O)c(OC)c(-c3ccc(OC)c(OC)c3)oc2c1.[Co]`: the EC50 is above 100 µM and the IC50 was determined as 56.2 µM. Consider `CC(=O)Oc1c(C)c2c(c3ncccc13)OC(C)C2` (stereo not given), for which the EC50 is above 200 µM and the half-inhibitory concentration (IC50) amounted to 3.16 µM. For the molecule `CC(=O)Oc1ccc2cc(Oc3cc(Cl)c(Cl)cc3Cl)c(=O)oc2c1`, the EC50 is above 200 µM and the IC50 was 93.3 µM. For `CSc1nc(C)c(C(=O)CCN2CCN(c3ccccn3)CC2)s1`, the EC50 is above 87.1 µM and the IC50 was found to be 4.37 µM.
